# Test results from patent US20090203693A1, “THERAPEUTIC AGENT FOR LIVER FIBROSIS” (Eisai R & D Management Co., Ltd., priority 2006, published 2009).
# Assays:
# [1] = target: T1, His6-DDR2 (cytoplasmic domain of human DDR2) (Homo sapiens, UniProt Q16832); experiment: Determination of DDR2 kinase inhibitory activity (His6-DDR2 tyrosine autophosphorylation, HTRF); type: biochemical; details: cell free, ATP, room temperature 10 minutes, HTRF detection; read-out: IC50 (concentration of the test substance required for inhibiting His6-DDR2 kinase activity by 50%)
# T1 construct: cytoplasmic domain of DDR2 having 6 histidines fused to the N-terminus thereof; made in house; host or cells: Sf9 insect cells (baculovirus, pFastBac-HT)
# T1 sequence (Q16832 422-855 limits assumed): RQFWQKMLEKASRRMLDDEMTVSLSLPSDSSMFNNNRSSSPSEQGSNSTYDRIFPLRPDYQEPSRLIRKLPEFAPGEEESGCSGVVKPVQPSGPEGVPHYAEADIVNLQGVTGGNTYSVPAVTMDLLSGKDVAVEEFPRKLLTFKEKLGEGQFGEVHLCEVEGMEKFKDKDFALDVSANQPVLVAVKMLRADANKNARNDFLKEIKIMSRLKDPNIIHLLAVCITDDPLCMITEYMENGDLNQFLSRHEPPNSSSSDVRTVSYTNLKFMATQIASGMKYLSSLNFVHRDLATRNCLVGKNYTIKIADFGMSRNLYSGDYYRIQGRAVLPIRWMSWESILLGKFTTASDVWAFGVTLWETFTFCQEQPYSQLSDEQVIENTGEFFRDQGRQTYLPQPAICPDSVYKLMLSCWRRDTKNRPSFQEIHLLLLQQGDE
# From the text: A DNA fragment of cytoplasmic domain of human DDR2 (SEQ ID NO: 1) was isolated by PCR method (Expand High Fidelity (purchased from Roche)) according to a conventional technique using human brain cDNA library (purchased from Clontech) as a template and SEQ ID NO:3: 5′-[…]-3′ and SEQ ID NO:4: 5′-[…]-3′ (purchased from JBioS) as primers. This DNA fragment was inserted into a baculovirus transplacement vector (pFastBac™-HT (purchased from Invitrogen)) to obtain a recombinant construct. Insect cells (Spodoptera frugiperda 9 (Sf9 cells)) were transfected with this recombinant construct, thereby preparing a DDR2 recombinant baculovirus solution. For preparation of a recombinant baculovirus, we referred to a standard textbook (Bac-to-Bac Baculovirus Expression System (Invitrogen)).
# The above-described DDR2 recombinant Baculovirus solution (0.07 mL) was added to Sf9 cells (7×10^7 cells) suspended in 2.5% FBS-containing SF-900II medium (purchased from Invitrogen) and shake-cultured at 27° C. for 72 hours. Then, this DDR2 recombinant Baculovirus-infected cells were subjected to centrifugation at 1,600 rpm at 4° C. for 6 minutes and the supernatant was removed. The precipitated infected cells were suspended in 10 mL of ice-cold PBS and centrifuged at 1,600 rpm at 4° C. for 6 minutes to remove the supernatant. The precipitated infected cells were suspended in 5 mL of ice-cold lysis buffer (50 mM Tris-HCl (pH 8.5), 5 mM 2-mercaptoethanol, 100 mM KCl, 1 mM PMSA, 1% (v/v) NP40), and centrifuged at 10,000 rpm at 4° C. for 10 minutes to obtain the supernatant.
# This supernatant was added to a Ni-NTA agarose column (1.5 mL (purchased from Qiagen)) equilibrated with 5 mL of buffer A (20 mM Tris-HCl (pH 8.5), 5 mM 2-mercaptoethanol, 500 mM KCl, 20 mM imidazole, 10% (v/v) glycerol). This column was sequentially washed with 10 mL of buffer A, 2 mL of buffer B (20 mM Tris-HCl (pH8.5), 5 mM 2-mercaptoethanol, 1 M KCl, 10% (v/v) glycerol) and 2 mL of buffer A. Subsequently, 4 mL of buffer C (20 mM Tris-HCl (pH 8.5), 5 mM 2-mercaptoethanol, 100 mM KCl, 100 mM imidazole, 10% (v/v) glycerol) was added to obtain an eluate. This eluate was placed in a dialysis membrane (purchased from Spectrum Medical Industries) and dialyzed against 1 L of dialysis buffer (20 mM Tris-HCl, 10% (v/v) glycerol, 1 mM dithiothreitol, 0.1 mM Na3VO4, 0.1 mM EGTA) at 4° C. overnight. After dialysis, a portion of the eluate was subjected to SDS-PAGE and an amount of the recombinant protein detected at a molecular weight of about 40 kDa (His6-DDR2 (cytoplasmic domain of DDR2 having 6 histidines fused to the N-terminus thereof)) by Coomassie brilliant blue staining was quantitated using BSA as a standard substance.
# To each well of a 96-well black half plate (purchased from Corning, Product No: 3694), 20 ng of His6-DDR2, 35 μL of 25 mM Hepes solution (pH 7.4) containing 14 mM MgCl2 and a test substance dissolved in dimethylsulfoxide (at 100-fold dilution with 1% BSA; 5 μL) were added to a total amount of 40 μL. To this, […] of 50 μM ATP (purchased with Sigma) diluted with 25 mM Hepes solution was added and incubated at room temperature for 10 minutes. Thereafter, 10 μL of 50 mM EDTA (pH 8.0) (purchased from Wako Pure Chemical Industries) was added to terminate the kinase reaction.
# Tyrosine-phosphorylated DDR2 was detected using homogeneous time resolved fluorescence (HTRF) technique (Analytical Biochemistry, 269, 94-104, 1999). Specifically, to each well of the reaction solutions mentioned above, 20 μL of 25 mM Hepes solution containing 1 M KF, 4.75 ng of europium cryptate-labeled anti-phosphorylated tyrosine antibody (Eu(K)-PT66) and 100 ng of XL665-labeled anti-His antibody (XL665-Anti-His) was added. This reaction solution was incubated at room temperature overnight. Thereafter, fluorescence intensities of each well at 665 nm and 620 nm were measured under irradiation at an excitation wavelength of 337 nm using Discovery HTRF microplate analyzer (from Packard). […]
# [2] = tested on: thioacetamide-induced hepatic fibrillization in Balb/cAnN female mice; experiment: Mouse models of thioacetamide-induced cirrhosis (Azan staining of liver sections); type: in vivo; details: orally once daily at 1 or 3 mg/kg, thioacetamide i.p. twice a week for five weeks
# Procedure: Thioacetamide (purchased from Tokyo Chemical Industry) was intraperitoneally administered at 150 mg/kg for the first week and 200 mg/kg for the next second to fifth weeks to Balb/cAnN female mice (purchased from Charles River Laboratories) twice a week. The test substance (Compound 3) was suspended in 0.5% methylcellulose aqueous solution and orally administered once daily at 1 or 3 mg/kg. Three days after the final thioacetamide administration, livers were removed from the mice and subjected to 10% neutral buffered formalin fixation followed by Azan staining (staining technique is described in “Medical Technology, supp., new technique for staining” (Ishiyaku Publisher, 1999)). The degree of fibrillization was examined by observation of the stained tissue sections. Experiments were conducted for a group without the administration of thioacetamide (6 examples), a group administered with thioacetamide but a test substance (3 examples), a group administered with Compound 3 at 1 mg/kg (6 examples) and a group administered with Compound 3 at 3 mg/kg (3 examples).
structure (smiles),measurement,setting,value
"COc1cc2nccc(Oc3ccc(NC(=O)Nc4nccs4)cc3)c2cc1OC [Compound 3, N-(2-thiazole)-N′-(4-((6,7-dimethoxy-4-quinolinyl)oxy)phenyl)urea]",IC50,[1],0.18 nM
same,degree of hepatic fibrillization (observation of stained tissue sections),[2],suppressed hepatic fibrillization in a dose-dependent manner
